# Results from patent publication US20110054034A1, “METHODS OF USING […] AS ANTIMICROBIAL AGENTS” (priority 2008, published 2011).
# Columns and labels:
# Format in all cases: in vivo
# S. aureus = assay: Treating a systemic infection in a human; settings: two 300 mg tablets three daily
# Protocol: A 70 kg person has a 102° fever and a bad cough. An internist diagnoses their problem as a systemic gram+bacterial infection of S. aureus. They prescribe trans-3-(naphth-2-yl)but-2-enoic acid-N-(2-carboxyphenyl)amide with the directions to take two 300 mg tablets three daily which the patient does.
# badly infected wound = assay: Treating a systemic infection in a dog (infected wound); settings: 15 kg dog, 300 mg twice a day mixed in food
# Protocol: A 15 kg dog with a badly infected wound is given 300 mg twice a day mixed in his food of trans-3-(naphth-2-yl)-but-2-enoic acid-N-(2-carboxyphenyl)amide. After 2 days the wound looks better and after 5 days it is almost healed.
# [1] = tested on: gram+bacterial infection on the skin; assay: Treating a topical infection in a human; settings: 2.5% cream applied twice daily, after about 4 days
# Excerpt: A 50 kg person is diagnosed by a dermatologist with a gram+bacterial infection on the skin of their left foot. They prescribed a 2.5% cream of 5-bromo-2-[[(2E)-3-(2-naphthalenyl)-1-oxo-2-butenyl]amino]benzoic acid which they applied twice daily.
SMILES,cough (S. aureus; after five days),temperature (S. aureus; after five days),fever (S. aureus; after two days),appearance of the infected wound (badly infected wound; after 2 days),healing of the infected wound (badly infected wound; after 5 days),appearance of the skin [1],gram+bacterial infection on the skin of the foot [1]
C/C(=C\C(=O)Nc1ccccc1C(=O)O)c1ccc2ccccc2c1 [trans-3-(naphth-2-yl)-but-2-enoic acid-N-(2-carboxy-phenyl)-amide],cough is gone,temperature is normal,the fever comes down,looks better,almost healed,–,–
C/C(=C\C(=O)Nc1ccc(Br)cc1C(=O)O)c1ccc2ccccc2c1 [5-bromo-2-[[(2E)-3-(2-naphthalenyl)-1-oxo-2-butenyl]amino]benzoic acid],–,–,–,–,–,appears normal,the infection was gone
